Assay results: PMC6179904 (Developmental Cell, 2018)

Test system: Jurkat T-cells
Type: cell-based, human

SMILES | LCK localization ratio (LR) at the immune synapse
Nc1ncnc2c1c(-c1ccc(Oc3ccccc3)cc1)cn2C1CCCC1 [LCK inhibitor (CAS 213743-31-8)] | 1.05
CCOC(=O)N1CCC(Nc2c(NCCN3CCN(c4cccc(C(F)(F)F)c4)CC3)c(=O)c2=O)CC1 [squarunkin A] | 0.94
